Data reported in paper PMC5772236, “In Vitro Enzymatic Depolymerization of Lignin with Release of Syringyl, Guaiacyl, and Tricin Units” (Applied and Environmental Microbiology, 2018).

Legend:
Assay type in all cases: biochemical
NaGSTNU = target: T1, NaGSTNU (Novosphingobium aromaticivorans, UniProt Q2G542); experiment: coupled assay with and without enzyme, HPLC of products; conditions: 25 mM Tris, 2% DMSO, pH 8.0, GSH co-substrate; GS-HPV formed in situ by LigD/LigN/LigE/LigF; both beta-epimers cleaved
T1 construct: gene Saro_2595; recombinant, E. coli B834; N-terminal His tag cut by Tev protease; cloned from genomic DNA
T1 sequence (Q2G542 1-288): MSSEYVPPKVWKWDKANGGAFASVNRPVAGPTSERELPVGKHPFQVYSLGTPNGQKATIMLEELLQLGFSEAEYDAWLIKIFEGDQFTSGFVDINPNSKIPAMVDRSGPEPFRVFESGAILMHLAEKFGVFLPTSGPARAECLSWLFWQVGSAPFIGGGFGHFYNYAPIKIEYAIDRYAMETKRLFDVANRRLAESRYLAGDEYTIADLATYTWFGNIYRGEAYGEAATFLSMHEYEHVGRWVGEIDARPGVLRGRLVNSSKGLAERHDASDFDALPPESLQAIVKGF

LigG = target: T2, LigG (Sphingomonas paucimobilis, UniProt Q9WXJ9); experiment: coupled assay, HPLC of products; conditions: 25 mM Tris, 2% DMSO, pH 8.0, GSH co-substrate; GS-HPV formed in situ by LigD/LigN/LigE/LigF; epimers not both completely cleaved
T2 construct: recombinant, E. coli, codon optimized; His tag cut by Tev protease (procedure cited)
T2 sequence (Q9WXJ9 1-265): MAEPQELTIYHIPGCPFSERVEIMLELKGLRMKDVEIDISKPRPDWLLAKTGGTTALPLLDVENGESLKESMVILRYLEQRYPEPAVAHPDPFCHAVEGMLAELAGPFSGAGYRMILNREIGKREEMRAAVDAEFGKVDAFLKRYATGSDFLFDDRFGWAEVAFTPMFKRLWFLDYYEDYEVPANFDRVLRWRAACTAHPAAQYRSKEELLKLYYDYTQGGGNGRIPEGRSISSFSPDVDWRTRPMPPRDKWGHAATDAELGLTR

AvGR = target: T3, AvGR (Allochromatium vinosum, UniProt D3RSV1); experiment: coupled assay with and without AvGR, HPLC of products; conditions: 25 mM Tris, 2% DMSO, pH 8.0; NADH formed in situ by LigD/LigN; GSSG co-substrate
T3 construct: gene Alvin_1323; recombinant, E. coli B834, codon optimized, pVP302K; N-terminal His tag cut by Tev protease
T3 sequence (D3RSV1 1-458): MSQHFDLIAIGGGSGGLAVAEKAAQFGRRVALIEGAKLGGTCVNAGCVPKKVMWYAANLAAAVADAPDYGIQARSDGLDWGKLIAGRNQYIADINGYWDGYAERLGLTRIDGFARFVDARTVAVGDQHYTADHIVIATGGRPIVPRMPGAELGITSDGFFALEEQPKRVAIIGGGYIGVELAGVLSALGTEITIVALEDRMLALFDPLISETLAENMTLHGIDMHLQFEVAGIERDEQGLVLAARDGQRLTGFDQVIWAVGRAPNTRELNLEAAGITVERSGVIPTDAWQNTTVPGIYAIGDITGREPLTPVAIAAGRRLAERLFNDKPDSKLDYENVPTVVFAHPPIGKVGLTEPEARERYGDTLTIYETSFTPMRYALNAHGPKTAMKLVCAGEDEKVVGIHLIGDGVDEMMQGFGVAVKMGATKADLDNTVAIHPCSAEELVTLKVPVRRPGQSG

## COc1cc(C(=O)C(CO)SC[C@H](NC(=O)CC[C@H](N)C(=O)O)C(=O)NCC(=O)O)ccc1O (mixture of isomers) [GS-HPV, β-S-glutathionyl-γ-hydroxypropiovanillone]
NaGSTNU
  coupled assay with and without enzyme, HPLC of products: the absence of NaGSTNU prevented the conversion of GS-HPV to HPV
LigG
  coupled assay, HPLC of products: LigG is not able to completely cleave both β-epimers of GS-HPV in vitro

## NC(=O)C1=CN([C@@H]2O[C@H](COP(=O)(O)OP(=O)(O)OC[C@H]3O[C@@H](n4cnc5c(N)ncnc54)[C@H](O)[C@@H]3O)[C@@H](O)[C@H]2O)C=CC1 [NADH]
AvGR
  coupled assay with and without AvGR, HPLC of products: the presence of AvGR is sufficient to recycle the cosubstrates NAD^+ and GSH
